Test: gradient 5% acetonitrile 3 min, to 50% in 2 min, to 85% in 15 min, held 3 min, 100 µL/min
Details: column: Zorbax Extend-C18 2.1 x 50 mm; eluents: water / acetonitrile, 0.1% formic acid
Summary of the method: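 Using water and acetonitrile that each contained 0.1% formic acid, mixtures of ~100 pure standards were separated at 100 μL/min on a Zorbax Extend-C18 column (2.1 × 50 mm, 1.8 μm). The HPLC fed a quadrupole time-of-flight mass spectrometer working in positive and negative ionization mode, with dead and dwell volumes of 40 μL and 900 μL. Data were acquired over 3 months. Retention time was read from computationally picked adduct peaks after manual inspection of each.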

| SMILES | RP-LC retention time |
| --- | --- |
| Cc1cc(C(=O)N2CCc3nn(C)c(=O)n3CC2)n[nH]1 | 560 s |
| CCC(CO)Nc1ncc([N+](=O)[O-])c(N)n1 (stereo unspecified) | 570 s |
| CC(C)NC(=O)N1CCC2(CC1)Nc1cc(F)ccc1-n1cccc12 | 895 s |
| CC(C)(C)C(O)CCNC(=O)NCc1ccc(F)cc1 (stereo unspecified) | 705 s |
| O=C(NCc1ccc2c(c1)OCO2)C(=O)NCC1CCN(S(=O)(=O)C2CC2)CC1 | 711 s |
| CCOC(=O)CNC(=O)N1CCc2c(c(C(=O)N3CCCCC3)nn2C)C1 | 643 s |
| Cc1sc(C)c(S(=O)(=O)Nc2cccc(Cl)c2)c1-c1cc(C(F)(F)F)on1 | 1190 s |
| N#Cc1cccc2sc(C(=O)N=C(N)N)cc12 | 625 s |
| CCc1ccc(S(=O)(=O)NCCc2csc(-c3cccnc3)n2)s1 | 734 s |
| CCCc1ccc(S(=O)(=O)N2CCC3(CC2)C(=O)N(CC)c2ccccc23)cc1 | 1160 s |
| CCN1CCN(c2cc(-c3ccc(F)cc3)c3c(n2)CCCCCC3)CC1 | 765 s |
| CCSc1ccc(Cc2nnc(NC(=O)c3cccs3)o2)cc1 | 807 s |
| CCOC(=O)c1sc2nc(C)cc(C(F)(F)F)c2c1N | 1130 s |
| COc1c(C(=O)NC(C)C)sc2ccc(Cl)cc12 | 1060 s |
| COc1ccc(C2CC(=O)N(c3ccc(C(C)C)cc3)C(=O)C2)cc1OC | 987 s |
| Cc1nnc2cc(N3CCN(C(=O)Nc4cccc(F)c4)CC3)cnn12 | 624 s |
| CCc1nnc(NC(=O)c2ccc(-c3ccccc3Cl)o2)s1 | 906 s |
| Cc1noc(C)c1CN1CCN(C(=O)C(C)(C)Oc2ccc(Cl)cc2)CC1 | 606 s |
| Cc1ccc(NS(=O)(=O)c2cc3n(c2)CCN(CC(C)C)C3=O)c(C)c1 | 841 s |
| Cc1cc(NC(=O)CCCSc2ccc(F)cc2)no1 | 838 s |
| CCN1CCN(C2CCN(C(=O)c3cc(F)ccc3Cl)CC2)C1=O | 705 s |

| SMILES | RP-LC retention time |
| --- | --- |
| COc1cc(OC)cc(N2C=C(C#N)S(=O)(=O)c3ccccc32)c1 | 910 s |
| NC(=O)c1c(NC(=O)C2=COCCO2)sc2c1CCCCC2 | 987 s |
| O=C1[C@H]2CN(Cc3cc(F)cc(F)c3)C[C@H]2C(=O)N1CCc1ccccc1 | 957 s |
| O=C1C(=O)N(Cc2ccc(C(=O)N3CCCCCC3)cc2)CCN1Cc1ccc(F)cc1 | 728 s |
| CCCN1CCn2cc(S(=O)(=O)Nc3ccc(C)cc3)cc2C1=O | 771 s |
| Cc1ccc(S(=O)(=O)N2CCN(C3CCN(Cc4cccnc4)C3=O)CC2)c(C)c1 (stereo unspecified) | 610 s |
| Cc1ccc(C)c(NC(=O)Cn2c(N)nc(C)cc2=O)c1 | 596 s |
| Cc1c(OCC(N)=O)ccc2c1O/C(=C\c1ccc3c(c1)OCO3)C2=O | 714 s |
| CC(C)CN(C1CCOCC1)C1CN(C(=O)c2cnccn2)C1 | 556 s |
| O=C(NCCN1CCCCC1)C1CCc2sc(C(=O)N3CCOCC3)cc2C1 (stereo unspecified) | 581 s |
| Cc1sc(C)c(S(=O)(=O)N2CCN(c3ccccn3)CC2)c1-c1cc(C(F)(F)F)on1 | 887 s |
| CCCCNc1onc(-c2ccc(F)cc2)c1C(=O)OC | 1130 s |
| CC(C)Cn1cc(S(=O)(=O)NCc2cccc(F)c2)c2cccnc21 | 953 s |
| Cc1cc(NC(=O)C2CCN(C(=O)Cc3c(C)noc3C)CC2)no1 | 621 s |
| CC(C)NC(=O)N1CCCC(CCc2nnc(-c3cnccn3)o2)C1 (stereo unspecified) | 627 s |
| CS(=O)(=O)c1ccc2nc(NC(=O)c3csc(-n4cccc4)n3)sc2c1 | 849 s |
| O=S(=O)(Nc1ccc(F)c(F)c1)c1c[nH]c2ncccc12 | 739 s |
| Cc1ccc(S(=O)(=O)N2CCC3(CC2)NCCN=C3NCc2cc(F)cc(F)c2)cc1C | 798 s |
| COc1ccc(C(CC(=O)NCCC(C)C)N2Cc3ccccc3C2=O)cc1OC (stereo unspecified) | 722 s |
| CN(C)C(=O)c1ccc2c(c1)nc(CN(C)C(=O)Nc1cccc(Br)c1)n2C | 642 s |

Continued, values first:

| RP-LC retention time | SMILES |
| --- | --- |
| 1050 s | COc1ccc(N2CCN(c3cc(SCC(=O)Nc4ccc(F)cc4F)ncn3)CC2)cc1 |
| 831 s | O=C1CC2(CCN(C(=O)C3CC(=O)N(c4ccc(Cl)cc4)C3)CC2)Oc2ccccc21 (stereo unspecified) |
| 682 s | Cc1nc2ccccc2c(=O)n1-c1ccc(NC(=O)c2cnccn2)cc1 |
| 984 s | CCc1ccc(NC(=O)CSc2nnc3c4cc(-c5ccc(F)cc5)nn4ccn23)cc1 |
| 645 s | COc1ccc(CNC(=O)CCC2CCN(c3cc(NC4CC4)ncn3)CC2)cc1 |
| 798 s | Cc1ccc(CNC(=O)Cn2ccc3ccc(-c4nnc(C)o4)cc32)cc1 |
| 873 s | COc1ccc(-n2ccn3cc(-c4ccccc4)nc3c2=O)cc1Cl |
| 626 s | Cc1noc(CNC(=O)c2n[nH]c3ccccc23)n1 |
| 1010 s | Cn1cc(-c2nc(C(=O)NCc3ccc(F)cc3Cl)cs2)c2cccnc21 |
| 561 s | COCCN1CCC(CNC(=O)Cc2cccc3ccccc23)CC1 |
| 674 s | COc1ccc(-c2cc3c(=O)n(Cc4noc(CN5CCCCC5C)n4)ccn3n2)cc1 (stereo unspecified) |
| 842 s | O=C(Cn1c(=O)oc2ccc(C(=O)N3CCCC3)cc21)N1CCN(c2cccc(Cl)c2)CC1 |
| 666 s | CCn1cnc(S(=O)(=O)N2CCC(C(=O)Nc3ccccc3OC)CC2)c1 |
| 558 s | Cc1cccc2nnc(N3CCC(C(=O)NCc4ccc(N5CCCCC5)cc4)CC3)n12 |
| 1020 s | Cc1nc(-c2ccc(C(F)(F)F)cc2)ncc1C(=O)NCc1ccco1 |
| 894 s | CCOc1ccccc1NC(=O)Cc1csc2nc(-c3ccccc3)cn12 |
| 786 s | O=S(=O)(Nc1ccc(Cn2cncn2)cc1)c1ccc2c(c1)CCCC2 |
| 789 s | Cc1noc(C)c1S(=O)(=O)N1CCC(c2noc(-c3ccncc3)n2)C1 (stereo unspecified) |
| 828 s | O=C(CC1CCCC1)N1CCN(c2ncccc2-c2nnc(C3CC3)o2)CC1 |
| 846 s | CC(NC(=O)CC1CCN(S(=O)(=O)c2ccccc2)CC1)c1ccc2c(c1)OCCO2 (stereo unspecified) |
| 671 s | O=C(Nc1sc2c(c1CN1CCN(c3ccccn3)CC1)CCCC2)c1ccco1 |
| 749 s | Cc1ccccc1Cn1cc(-c2ccncc2)cc1C(=O)Nc1ccc2c(c1)OCO2 |
| 660 s | COC(=O)c1c(-c2ccc(Cl)cc2)noc1NCCN1CCOCC1 |
| 741 s | CC1CC(=O)N(CC(=O)NCc2ccc3c(c2)OCO3)c2ccccc2S1 (stereo unspecified) |
| 880 s | CCOC(=O)c1cn(Cc2ccccc2F)c2nc(C)ccc2c1=O |

| RP-LC retention time | SMILES |
| --- | --- |
| 722 s | CC(C(=O)N1CCC(c2cc(N)on2)CC1)c1ccccc1 (stereo unspecified) |
| 894 s | CCCc1cc(NCc2ccccn2)n2ncc(-c3ccccc3)c2n1 |
| 717 s | Cc1ccc(NC(=O)N2CCCC(Cn3c(C4CC4)nc4cccnc43)C2)cc1F (stereo unspecified) |
| 968 s | Cc1ccc(-c2noc(CCn3nc(-c4ccc5c(c4)OCO5)ccc3=O)n2)cc1 |
| 759 s | CCCC(=O)N1CCc2c(c(C(=O)N3CCCC(C(=O)Nc4ccccc4C)C3)nn2C)C1 (stereo unspecified) |
| 1090 s | CC1CCCN(c2ccc(-c3noc(CN4CCN(c5ccccc5F)CC4)n3)cn2)C1 (stereo unspecified) |
| 1000 s | CCn1c(=O)c2ccccc2n(Cc2nc(-c3ccccc3Cl)no2)c1=O |
| 610 s | O=C(NCCc1c[nH]c2ccccc12)C1CCN(c2ccncc2)CC1 |
| 684 s | O=C(CCSc1ccccc1)N1CCN(c2ccc3nnc(C4CC4)n3n2)CC1 |
| 692 s | Cc1ccc(CNC(=O)Cn2c(=O)c3nnc(C)n3c3ncccc32)cc1 |
| 920 s | CCOC(=O)c1ccc(NC(=O)N2CCC(n3c(C(F)(F)F)nc4cccnc43)CC2)cc1 |
| 819 s | Cc1cc2c(=O)n(CC(=O)Nc3cccc(Cl)c3C)ccc2s1 |
| 1060 s | COc1ccccc1-c1cc2c(=O)n(Cc3nc(-c4cccc(OC)c4OC)oc3C)ccn2n1 |
| 896 s | Cc1ccc(C)c2sc(N(C)CC(=O)Nc3ccc(-n4cnnn4)cc3)nc12 |
| 1250 s | Cc1cccc(-c2noc(-c3nn(CC(=O)NC4CCCCC4)c4ccccc34)n2)c1 |
| 649 s | COc1ccc(CNC(=O)NCCc2cn(C)c3ncccc23)cc1 |
| 824 s | Cc1cccc(NC(=O)Cc2c(C)n(C)c3nc(-c4ccccc4)nn3c2=O)c1 |
| 770 s | COC(=O)c1ccc2c(=O)n(-c3cc(C)cc(C)c3)c(N3CCN(Cc4ccccc4)CC3)nc2c1 |
| 908 s | CCN1C(=O)c2cc(NC(=O)c3ccc(Br)o3)ccc2Oc2ccccc21 |
| 703 s | O=C(Cn1c(=O)c2cccn2c2ccc(F)cc21)NCC1CCCO1 (stereo unspecified) |
| 1290 s | Cc1ccc(-c2noc(-c3ccc(NC(=O)c4ccc(Br)o4)cc3)n2)cc1 |
| 964 s | Cc1cc(OCC(=O)Nc2ccccc2C#N)nc(-c2ccc(F)cc2)n1 |
| 853 s | Cc1ccc(NC(=O)NC2CCN(c3ccc(C)cc3)C2=O)cc1 (stereo unspecified) |
| 753 s | CCc1ccc(NC(=O)C2CCCN(S(=O)(=O)c3cn(CC)cn3)C2)cc1 (stereo unspecified) |
| 857 s | O=C(NCCc1cccs1)C1CCc2nc(N3CCCC3)ncc2C1 (stereo unspecified) |

Source: the METLIN SMRT retention time set (Domingo-Almenara et al. 2019)
